Experimental data from ChEMBL document CHEMBL5696443 (Clin Cancer Res, 2016).
The source made the active and inactive calls. The rule behind the calls is not given here.

Key:
[1] = molecular target: Serine/threonine-protein kinase pim-2 (Homo sapiens) (UniProt Q9P1W9); test: Inhibition of human PIM2 at 1 uM using RSRHSSYPAGT as substrate in presence of [gamma33P]-ATP by HotSpot assay relative to control
[2] = molecular target: Ribosomal protein S6 kinase alpha-2 (Homo sapiens, UniProt Q15349); test: Inhibition of human RPS6kA2 using KKLNRTLSVA as substrate in presence of [gamma33P]-ATP by HotSpot assay
[3] = test system: EML4-ALK (Homo sapiens), Q9UM73+Q9HC35 [S1206A]; conditions: BaF3, dose 200.0 nmol/L, time 3-5 weeks
Homo sapiens = organism: Homo sapiens; test: Inhibition of human BRAF V600E at 1 uM using MEK1 as substrate in presence of [gamma33P]-ATP by HotSpot assay relative to control
[4] = test system: EML4-ALK (Homo sapiens), Q9UM73+Q9HC35 [F1174V]; conditions: BaF3, dose 200.0 nmol/L, time 3-5 weeks
[5] = molecular target: RAC-gamma serine/threonine-protein kinase (Homo sapiens) (UniProt Q9Y243); test: Inhibition of human AKT3 at 1 uM using KGSGSGRPRTSSFAEG as substrate in presence of [gamma33P]-ATP by HotSpot assay relative to control
[6] = molecular target: Death-associated protein kinase 2 (Homo sapiens) (UniProt Q9UIK4); test: Inhibition of human DAPK2 at 1 uM using KKLNRTLSFAEPG as substrate in presence of [gamma33P]-ATP by HotSpot assay relative to control
[7] = molecular target: Tyrosine-protein kinase Mer (Homo sapiens, UniProt Q12866); test: Inhibition of human MERTK using poly (Glu, Tyr)4:1 as substrate in presence of [gamma33P]-ATP by HotSpot assay
[8] = molecular target: Serine/threonine-protein kinase PAK 6 (Homo sapiens) (UniProt Q9NQU5); test: Inhibition of human PAK6 at 1 uM using RRRLSFAEPG as substrate in presence of [gamma33P]-ATP by HotSpot assay relative to control
[9] = molecular target: Dual specificity tyrosine-phosphorylation-regulated kinase 4 (Homo sapiens) (UniProt Q9NR20); test: Inhibition of human DYRK4 at 1 uM using RRRFRPASPLRGPPK as substrate in presence of [gamma33P]-ATP by HotSpot assay relative to control
[10] = molecular target: Tyrosine-protein kinase HCK (Homo sapiens, UniProt P08631); test: Inhibition of human HCK using KVEKIGEGTYGVVYK as substrate in presence of [gamma33P]-ATP by HotSpot assay
[11] = molecular target: Dual specificity mitogen-activated protein kinase kinase 1 (Homo sapiens) (UniProt Q02750); test: Inhibition of human MAP2K1 at 1 uM using ERK2 as substrate in presence of [gamma33P]-ATP by HotSpot assay relative to control
[12] = Toxicity in CB-17/SCID mouse implanted with ALK positive mouse BaF3 cells expressing EML4-ALK G1202R mutant assessed as effect on body weight at 25 to 50 mg/kg, po administered once daily and measured after 6 days; assay type: organism-based; conditions: in vivo, 144 h, dose 25-50 mg/kg, time 6 day
[13] = molecular target: Mitogen-activated protein kinase 8 (Homo sapiens) (UniProt P45983); test: Inhibition of human JNK1a1 at 1 uM using ATF2 as substrate in presence of [gamma33P]-ATP by HotSpot assay relative to control
KARPAS-299 [14] = conditions: time 72 hrs
[15] = molecular target: Ribosomal protein S6 kinase alpha-1 (Homo sapiens, UniProt Q15418); test: Inhibition of human RPS6KA1 using KKLNRTLSVA as substrate in presence of [gamma33P]-ATP by HotSpot assay
[16] = molecular target: Casein kinase I isoform alpha (Homo sapiens) (UniProt P48729); test: Inhibition of human CSNK1A1 at 1 uM using KRRRAL[pS]VASLPGL as substrate in presence of [gamma33P]-ATP by HotSpot assay relative to control
[17] = molecular target: Tyrosine-protein kinase BTK (Homo sapiens, UniProt Q06187); test: Inhibition of human BTK using poly (Glu, Tyr)4:1 as substrate in presence of [gamma33P]-ATP by HotSpot assay
[18] = molecular target: Protein kinase C iota type (Homo sapiens) (UniProt P41743); test: Inhibition of human PRKCI at 1 uM using ERMRPRKRQGSVRRRV as substrate in presence of [gamma33P]-ATP by HotSpot assay relative to control
[19] = molecular target: Tyrosine-protein kinase JAK1 (Homo sapiens) (UniProt P23458); test: Inhibition of human JAK1 at 1 uM using MBP as substrate in presence of [gamma33P]-ATP by HotSpot assay relative to control
[20] = molecular target: NT-3 growth factor receptor (Homo sapiens) (UniProt Q16288); test: Inhibition of human NTRK3 at 1 uM using poly (Glu, Tyr)4:1 as substrate in presence of [gamma33P]-ATP by HotSpot assay relative to control
[21] = molecular target: Receptor tyrosine-protein kinase erbB-2 (Homo sapiens, UniProt P04626); test: Inhibition of human ERBB2 using poly (Glu, Tyr)4:1 as substrate in presence of [gamma33P]-ATP by HotSpot assay
Aurora kinase C = Aurora kinase C (Homo sapiens, UniProt Q9UQB9); test: Inhibition of human AURKC using H-LRRASLG as substrate in presence of [gamma33P]-ATP by HotSpot assay
[22] = molecular target: Tyrosine-protein kinase Fyn (Homo sapiens, UniProt P06241); test: Inhibition of human FYN using poly (Glu, Tyr)4:1 as substrate in presence of [gamma33P]-ATP by HotSpot assay
[23] = molecular target: Tyrosine-protein kinase TXK (Homo sapiens) (UniProt P42681); test: Inhibition of human TXK at 1 uM using EAIYAAPFAKKK as substrate in presence of [gamma33P]-ATP by HotSpot assay relative to control
[24] = molecular target: Serine/threonine-protein kinase Chk2 (Homo sapiens, UniProt O96017); test: Inhibition of human CHEK2 using KKKVSRSGLYRSPSMPENLNRPR as substrate in presence of [gamma33P]-ATP by HotSpot assay
[25] = molecular target: Casein kinase I isoform epsilon (Homo sapiens) (UniProt P49674); test: Inhibition of human CK1epsilon at 1 uM using KRRRAL[pS]VASLPGL as substrate in presence of [gamma33P]-ATP by HotSpot assay relative to control
KARPAS-299 [26] = test: Antitumor activity against ALK positive human KARPAS-299 cells xenografted in SCID beige mouse assessed as tumor regression at 50 mg/kg, po administered once daily for 14 days and measured after 13 days relative to control; assay type: functional; conditions: time 27 day
[27] = test system: EML4-ALK (Homo sapiens), Q9UM73+Q9HC35 [F1174V]; conditions: BaF3, time 3-5 weeks

Sequence of Dual specificity tyrosine-phosphorylation-regulated kinase 4 (Homo sapiens) (Q9NR20 whole entry): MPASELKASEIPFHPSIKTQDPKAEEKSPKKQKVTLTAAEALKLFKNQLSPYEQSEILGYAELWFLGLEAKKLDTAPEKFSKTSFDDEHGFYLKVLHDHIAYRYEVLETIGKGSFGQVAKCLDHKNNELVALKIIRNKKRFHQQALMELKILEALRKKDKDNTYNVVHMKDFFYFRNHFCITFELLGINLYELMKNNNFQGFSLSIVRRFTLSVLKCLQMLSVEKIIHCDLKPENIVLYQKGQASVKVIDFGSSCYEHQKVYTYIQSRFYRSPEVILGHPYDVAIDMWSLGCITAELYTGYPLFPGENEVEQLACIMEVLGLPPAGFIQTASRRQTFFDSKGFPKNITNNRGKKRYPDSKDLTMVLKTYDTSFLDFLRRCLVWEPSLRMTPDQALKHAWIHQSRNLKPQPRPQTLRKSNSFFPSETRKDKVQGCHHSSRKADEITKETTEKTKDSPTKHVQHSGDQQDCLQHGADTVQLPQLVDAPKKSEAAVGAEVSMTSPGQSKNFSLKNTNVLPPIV
Sequence of Tyrosine-protein kinase HCK (P08631 whole entry): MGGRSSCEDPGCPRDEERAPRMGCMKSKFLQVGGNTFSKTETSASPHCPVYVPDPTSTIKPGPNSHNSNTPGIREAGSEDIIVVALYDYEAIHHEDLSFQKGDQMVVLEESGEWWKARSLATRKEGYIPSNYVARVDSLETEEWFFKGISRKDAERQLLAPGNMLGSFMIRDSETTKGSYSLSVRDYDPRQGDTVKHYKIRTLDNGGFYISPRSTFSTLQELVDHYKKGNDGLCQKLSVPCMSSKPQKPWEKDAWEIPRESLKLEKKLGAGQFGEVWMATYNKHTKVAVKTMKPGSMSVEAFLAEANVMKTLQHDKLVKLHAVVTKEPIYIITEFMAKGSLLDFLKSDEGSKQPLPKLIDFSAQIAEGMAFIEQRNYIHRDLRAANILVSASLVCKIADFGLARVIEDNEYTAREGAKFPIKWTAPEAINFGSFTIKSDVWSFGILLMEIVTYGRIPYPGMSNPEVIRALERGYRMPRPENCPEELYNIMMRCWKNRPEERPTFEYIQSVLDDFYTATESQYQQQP
Sequence of Casein kinase I isoform alpha (Homo sapiens) (P48729 2-337 limits assumed): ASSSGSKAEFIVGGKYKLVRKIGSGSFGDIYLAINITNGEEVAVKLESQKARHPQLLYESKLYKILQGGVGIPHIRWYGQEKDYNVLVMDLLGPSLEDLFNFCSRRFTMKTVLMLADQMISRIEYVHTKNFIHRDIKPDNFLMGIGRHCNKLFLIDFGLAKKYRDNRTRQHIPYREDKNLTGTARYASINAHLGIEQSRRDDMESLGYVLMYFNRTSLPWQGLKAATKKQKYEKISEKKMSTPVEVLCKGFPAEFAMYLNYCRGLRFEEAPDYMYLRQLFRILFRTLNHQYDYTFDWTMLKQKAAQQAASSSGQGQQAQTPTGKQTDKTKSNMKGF
Sequence of Aurora kinase C (Q9UQB9 whole entry): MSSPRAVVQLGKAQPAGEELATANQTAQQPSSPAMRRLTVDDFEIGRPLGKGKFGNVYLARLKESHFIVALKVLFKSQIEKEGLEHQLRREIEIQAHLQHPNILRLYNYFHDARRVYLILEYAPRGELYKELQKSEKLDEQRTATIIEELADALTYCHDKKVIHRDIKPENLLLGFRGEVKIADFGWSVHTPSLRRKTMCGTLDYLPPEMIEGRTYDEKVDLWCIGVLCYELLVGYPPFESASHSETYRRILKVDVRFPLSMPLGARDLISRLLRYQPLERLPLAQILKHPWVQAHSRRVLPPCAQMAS
Sequence of Tyrosine-protein kinase Mer (Q12866 whole entry): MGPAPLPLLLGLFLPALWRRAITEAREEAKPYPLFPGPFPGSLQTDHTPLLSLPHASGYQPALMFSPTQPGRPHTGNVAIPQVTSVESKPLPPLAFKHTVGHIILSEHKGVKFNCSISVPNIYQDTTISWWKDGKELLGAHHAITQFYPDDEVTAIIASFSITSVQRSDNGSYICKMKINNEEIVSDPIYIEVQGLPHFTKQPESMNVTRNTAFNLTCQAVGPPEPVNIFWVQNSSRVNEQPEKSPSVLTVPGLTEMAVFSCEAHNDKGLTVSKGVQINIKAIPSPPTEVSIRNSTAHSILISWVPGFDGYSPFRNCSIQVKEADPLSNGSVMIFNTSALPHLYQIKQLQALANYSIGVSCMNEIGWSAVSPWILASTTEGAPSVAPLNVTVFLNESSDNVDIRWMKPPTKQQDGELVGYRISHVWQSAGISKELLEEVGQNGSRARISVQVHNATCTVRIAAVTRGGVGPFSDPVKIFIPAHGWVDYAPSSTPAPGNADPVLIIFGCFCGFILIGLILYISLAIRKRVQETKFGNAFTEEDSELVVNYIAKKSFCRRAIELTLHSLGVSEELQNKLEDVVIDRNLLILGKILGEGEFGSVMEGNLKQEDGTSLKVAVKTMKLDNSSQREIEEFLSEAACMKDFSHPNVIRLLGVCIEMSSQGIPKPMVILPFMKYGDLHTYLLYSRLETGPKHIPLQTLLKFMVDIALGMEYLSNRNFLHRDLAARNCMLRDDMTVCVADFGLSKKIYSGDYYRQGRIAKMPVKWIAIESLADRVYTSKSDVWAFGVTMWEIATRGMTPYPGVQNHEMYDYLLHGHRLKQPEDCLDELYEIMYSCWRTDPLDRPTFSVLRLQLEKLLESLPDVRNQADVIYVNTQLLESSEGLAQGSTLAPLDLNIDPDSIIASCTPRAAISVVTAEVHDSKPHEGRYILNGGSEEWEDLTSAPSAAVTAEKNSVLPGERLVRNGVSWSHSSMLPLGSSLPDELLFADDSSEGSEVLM
Sequence of Tyrosine-protein kinase JAK1 (Homo sapiens) (P23458 whole entry): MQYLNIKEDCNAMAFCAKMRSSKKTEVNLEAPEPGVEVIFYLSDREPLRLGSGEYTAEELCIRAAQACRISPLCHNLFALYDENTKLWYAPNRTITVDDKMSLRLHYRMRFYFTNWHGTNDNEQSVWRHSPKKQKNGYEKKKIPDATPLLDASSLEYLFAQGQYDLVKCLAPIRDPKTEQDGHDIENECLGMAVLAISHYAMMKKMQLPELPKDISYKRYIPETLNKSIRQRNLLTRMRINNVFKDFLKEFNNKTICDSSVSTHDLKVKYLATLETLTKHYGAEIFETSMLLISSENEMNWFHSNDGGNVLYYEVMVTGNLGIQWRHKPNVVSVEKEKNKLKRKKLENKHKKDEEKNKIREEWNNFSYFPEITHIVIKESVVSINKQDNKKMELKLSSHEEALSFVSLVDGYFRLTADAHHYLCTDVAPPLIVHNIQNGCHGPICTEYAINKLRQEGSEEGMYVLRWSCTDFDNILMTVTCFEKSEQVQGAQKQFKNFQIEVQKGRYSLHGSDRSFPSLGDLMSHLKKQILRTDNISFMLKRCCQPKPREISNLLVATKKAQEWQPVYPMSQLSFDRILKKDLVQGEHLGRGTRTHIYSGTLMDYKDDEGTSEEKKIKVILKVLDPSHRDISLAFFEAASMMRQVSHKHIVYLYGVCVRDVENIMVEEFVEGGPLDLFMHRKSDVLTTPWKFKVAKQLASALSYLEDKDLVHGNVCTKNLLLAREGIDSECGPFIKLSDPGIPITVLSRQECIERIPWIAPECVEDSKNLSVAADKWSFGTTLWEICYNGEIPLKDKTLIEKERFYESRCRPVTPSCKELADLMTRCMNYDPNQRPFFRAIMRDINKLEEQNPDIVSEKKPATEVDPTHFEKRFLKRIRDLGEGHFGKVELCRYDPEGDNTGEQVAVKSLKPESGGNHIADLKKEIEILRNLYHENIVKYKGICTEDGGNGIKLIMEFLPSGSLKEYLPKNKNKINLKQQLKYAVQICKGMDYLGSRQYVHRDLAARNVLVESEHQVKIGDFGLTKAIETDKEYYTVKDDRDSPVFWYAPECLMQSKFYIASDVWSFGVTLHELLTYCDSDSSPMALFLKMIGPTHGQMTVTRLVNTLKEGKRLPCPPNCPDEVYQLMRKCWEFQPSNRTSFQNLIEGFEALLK
Sequence of Protein kinase C iota type (Homo sapiens) (P41743 whole entry): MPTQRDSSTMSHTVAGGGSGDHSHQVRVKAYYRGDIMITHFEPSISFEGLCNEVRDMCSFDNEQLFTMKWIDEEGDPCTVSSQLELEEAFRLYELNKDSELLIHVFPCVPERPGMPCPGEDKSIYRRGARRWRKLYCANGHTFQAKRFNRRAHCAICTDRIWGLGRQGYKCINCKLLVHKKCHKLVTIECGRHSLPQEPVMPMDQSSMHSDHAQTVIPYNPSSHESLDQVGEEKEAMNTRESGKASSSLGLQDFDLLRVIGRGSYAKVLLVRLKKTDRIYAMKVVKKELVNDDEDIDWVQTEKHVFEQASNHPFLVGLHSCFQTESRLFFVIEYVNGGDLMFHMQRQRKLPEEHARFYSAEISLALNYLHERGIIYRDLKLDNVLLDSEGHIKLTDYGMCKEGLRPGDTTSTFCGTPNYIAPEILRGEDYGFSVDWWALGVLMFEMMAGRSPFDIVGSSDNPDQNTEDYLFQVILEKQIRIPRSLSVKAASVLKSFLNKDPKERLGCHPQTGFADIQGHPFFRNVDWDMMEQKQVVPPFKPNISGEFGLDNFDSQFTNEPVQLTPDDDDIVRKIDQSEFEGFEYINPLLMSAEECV
Sequence of Casein kinase I isoform epsilon (Homo sapiens) (P49674 whole entry, looked up, canonical isoform): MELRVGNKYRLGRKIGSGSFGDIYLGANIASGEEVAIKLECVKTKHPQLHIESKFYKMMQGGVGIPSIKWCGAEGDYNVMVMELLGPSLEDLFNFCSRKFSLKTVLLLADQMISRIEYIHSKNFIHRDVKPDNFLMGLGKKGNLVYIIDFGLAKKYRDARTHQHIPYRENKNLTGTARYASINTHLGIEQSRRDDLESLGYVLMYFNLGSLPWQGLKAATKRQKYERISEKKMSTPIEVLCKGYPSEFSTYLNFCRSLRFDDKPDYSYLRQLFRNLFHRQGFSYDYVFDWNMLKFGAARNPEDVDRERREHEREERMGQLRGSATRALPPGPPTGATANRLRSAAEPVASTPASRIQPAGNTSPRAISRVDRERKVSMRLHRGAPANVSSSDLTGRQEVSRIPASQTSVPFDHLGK

Compound: COc1cc(N2CCC(N3CCN(C)CC3)CC2)ccc1Nc1ncc(Cl)c(Nc2ccccc2P(C)(C)=O)n1 [BRIGATINIB]
- inhibition [1]: < 90%
- IC50 [2]: 13 nM
- inhibition [3]: inactive
- inhibition (Homo sapiens): < 90%
- inhibition [4]: inactive
- inhibition [5]: < 90%
- inhibition [6]: < 90%
- IC50 [7]: > 1000 nM
- inhibition [8]: < 90%
- inhibition [9]: < 90%
- IC50 [10]: 198 nM
- inhibition [11]: < 90%
- Activity [12]: Non-Toxic
- inhibition [13]: < 90%
- GI50 (KARPAS-299 [14]): 10 nM
- IC50 [15]: 30 nM
- inhibition [16]: < 90%
- IC50 [17]: 674 nM
- inhibition [18]: < 90%
- inhibition [19]: < 90%
- inhibition [20]: < 90%
- IC50 [21]: 42 nM
- IC50 (Aurora kinase C): > 1000 nM
- IC50 [22]: 198 nM
- inhibition [23]: < 90%
- IC50 [24]: 6.5 nM
- inhibition [25]: < 90%
- Activity (KARPAS-299 [26]): ~100%
- IC90 [27]: 195 nM
